Legend:
[1] = test system: MET; experiment: MET biochemical kinase assay; design: species or system human; concentration or dose not given beside the values
In short: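 Lysate-derived MET, or chimeric receptors, is immobilised on plates through an antibody to the human MET cytoplasmic region. Compounds are added along with kinase buffer supplying ATP and divalent metal ions, and receptor autophosphorylation is quantified by anti-phosphotyrosine ELISA.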

[2] = target: T1, EGFR (Homo sapiens, UniProt P00533); experiment: EGFR ELISA assay (in vitro kinase activity, EGFR captured from A431 cell lysate); format: biochemical; design: concentration or dose not given beside the values
T1 construct: Add 7 ug A431 cell lysate per well (EGFR source); endogenous in cells; host or cells: A431
T1 sequence (P00533 25-1210): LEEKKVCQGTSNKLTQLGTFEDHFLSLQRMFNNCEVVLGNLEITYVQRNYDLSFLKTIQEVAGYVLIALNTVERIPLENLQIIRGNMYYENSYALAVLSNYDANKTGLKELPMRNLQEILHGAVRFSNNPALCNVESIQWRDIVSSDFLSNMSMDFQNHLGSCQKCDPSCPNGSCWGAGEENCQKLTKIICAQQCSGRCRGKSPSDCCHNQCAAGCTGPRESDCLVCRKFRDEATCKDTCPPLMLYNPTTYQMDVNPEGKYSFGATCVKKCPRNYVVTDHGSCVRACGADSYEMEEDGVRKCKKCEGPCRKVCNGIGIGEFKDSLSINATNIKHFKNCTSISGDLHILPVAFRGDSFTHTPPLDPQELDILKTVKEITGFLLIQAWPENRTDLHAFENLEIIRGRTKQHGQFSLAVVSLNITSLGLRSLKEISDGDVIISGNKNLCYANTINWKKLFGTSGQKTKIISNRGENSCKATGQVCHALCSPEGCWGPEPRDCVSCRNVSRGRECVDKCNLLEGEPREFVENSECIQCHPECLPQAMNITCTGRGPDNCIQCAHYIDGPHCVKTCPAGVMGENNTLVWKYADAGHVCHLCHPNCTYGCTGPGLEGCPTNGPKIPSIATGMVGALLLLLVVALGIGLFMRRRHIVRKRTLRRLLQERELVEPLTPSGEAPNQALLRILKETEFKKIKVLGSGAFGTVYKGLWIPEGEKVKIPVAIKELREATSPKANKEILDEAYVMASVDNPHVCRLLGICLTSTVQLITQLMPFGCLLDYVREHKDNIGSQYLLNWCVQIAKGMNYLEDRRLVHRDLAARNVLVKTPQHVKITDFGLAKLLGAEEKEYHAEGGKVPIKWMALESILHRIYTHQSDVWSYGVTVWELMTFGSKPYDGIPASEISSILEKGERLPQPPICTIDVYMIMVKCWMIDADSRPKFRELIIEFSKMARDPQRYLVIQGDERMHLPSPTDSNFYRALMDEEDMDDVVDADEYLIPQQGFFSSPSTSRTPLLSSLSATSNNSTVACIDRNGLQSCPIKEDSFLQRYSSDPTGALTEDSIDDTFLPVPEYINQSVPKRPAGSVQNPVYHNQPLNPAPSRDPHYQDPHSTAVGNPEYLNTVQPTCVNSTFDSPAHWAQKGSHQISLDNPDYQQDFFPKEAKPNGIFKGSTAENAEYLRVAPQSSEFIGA
In short: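 EGFR from A431 lysate was captured on plates coated with anti-EGFR antibody. Compounds were added 30 min before a 5 min phosphorylation with 3 µM ATP/5 mM MnCl2, which was stopped with 20 mM EDTA. Phosphotyrosine was detected with rabbit anti-phosphotyrosine, then a peroxidase-conjugated secondary and ABTS/H2O2, read at 410 nm.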

[3] = target: PDGF-R (Homo sapiens, UniProt P09619); experiment: PDGF-R ELISA; format: cell-based
Sequence of PDGF-R (P09619 33-1106, species assumed): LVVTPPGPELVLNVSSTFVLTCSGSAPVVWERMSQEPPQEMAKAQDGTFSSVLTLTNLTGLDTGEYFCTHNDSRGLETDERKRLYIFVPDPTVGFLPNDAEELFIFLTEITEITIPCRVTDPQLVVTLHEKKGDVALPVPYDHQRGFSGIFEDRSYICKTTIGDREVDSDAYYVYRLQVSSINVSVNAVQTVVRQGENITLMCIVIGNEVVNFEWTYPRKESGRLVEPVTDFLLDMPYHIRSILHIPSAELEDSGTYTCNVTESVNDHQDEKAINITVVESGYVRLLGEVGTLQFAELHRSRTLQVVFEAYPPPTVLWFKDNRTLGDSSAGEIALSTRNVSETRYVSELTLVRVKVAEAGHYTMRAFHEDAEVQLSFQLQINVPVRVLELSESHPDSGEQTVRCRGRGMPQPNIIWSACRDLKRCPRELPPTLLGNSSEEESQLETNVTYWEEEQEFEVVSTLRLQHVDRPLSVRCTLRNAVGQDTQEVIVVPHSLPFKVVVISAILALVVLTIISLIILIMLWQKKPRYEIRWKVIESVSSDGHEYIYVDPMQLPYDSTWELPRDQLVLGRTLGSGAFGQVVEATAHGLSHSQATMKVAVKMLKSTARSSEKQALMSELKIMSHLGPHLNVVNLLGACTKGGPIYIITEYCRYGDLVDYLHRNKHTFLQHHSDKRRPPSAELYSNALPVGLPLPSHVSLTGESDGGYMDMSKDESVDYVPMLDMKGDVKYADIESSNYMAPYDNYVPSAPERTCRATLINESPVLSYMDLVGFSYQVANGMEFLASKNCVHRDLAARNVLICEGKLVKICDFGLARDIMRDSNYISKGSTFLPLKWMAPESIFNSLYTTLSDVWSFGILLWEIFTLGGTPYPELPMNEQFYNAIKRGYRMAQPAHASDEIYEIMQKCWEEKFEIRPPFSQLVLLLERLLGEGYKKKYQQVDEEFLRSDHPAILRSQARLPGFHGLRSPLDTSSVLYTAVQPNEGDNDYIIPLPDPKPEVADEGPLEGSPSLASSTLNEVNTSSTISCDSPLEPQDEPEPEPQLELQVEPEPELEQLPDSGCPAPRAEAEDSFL
Text: A PDGF-R ELISA is described in International Patent Publication No. WO 96/40116, published December 19, 1996 by Tang et al.

Row | Structure (SMILES) | Met Kinase % Inhibition [1] [%] | Biochem EGFR %Inhibition [2] [%] | PDGF Kinase %Inhibition [3] [%]
1 | Cn1cccc1C=C1C(=O)Nc2c(Br)cc(Br)cc21 [10717/A04] | 37.4 | 29.0 | 
2 | O=C1Nc2ccc(S(=O)(=O)Nc3ccc(C(F)(F)F)cc3)cc2C1=Cc1ccc[nH]1 [10717/E09] | 19.2 | -5.8 | 
3 | COc1cccc(O)c1C=C1C(=O)Nc2ccc(S(=O)(=O)Nc3ccc(C(F)(F)F)cc3)cc21 [10717/E10] | 35.9 | -6.1 | 
4 | Cc1[nH]c(C=C2C(=O)Nc3ccc(S(=O)(=O)Nc4ccc(C(F)(F)F)cc4)cc32)c(Br)c1Br [10717/E11] | 75.1 | 44.9 | 
5 | CCOc1ccccc1C=C1C(=O)Nc2ccc(S(=O)(=O)N3CCOCC3)cc21 [10717/F02] | 30.4 | 6.2 | 
6 | O=C1Nc2ccc(S(=O)(=O)N3CCOCC3)cc2C1=Cc1cccs1 [10717/F03] | 42.8 | -4.7 | 
7 | Cn1cccc1C=C1C(=O)Nc2ccc(S(=O)(=O)N3CCOCC3)cc21 [10717/F04] | 11.4 | -15.7 | 
8 | O=C1Nc2ccc(S(=O)(=O)N3CCOCC3)cc2C1=Cc1ccc(F)cc1 [10717/F05] | 21.5 | -20.1 | 
9 | O=C1Nc2ccc(S(=O)(=O)N3CCOCC3)cc2C1=Cc1c[nH]c2ccccc12 [10717/F06] | 49.0 | -22.8 | 
10 | O=C1Nc2ccc(CCCl)cc2C1=Cc1cccc(Br)c1 [10723/G10] | 40.7 | -4.1 | -27.8
11 | CC(C)(C)c1cc(C=C2C(=O)Nc3ccc(CCCl)cc32)c(O)c(C(C)(C)C)c1 [10723/G11] | 39.4 | -35.0 | -7.7
12 | CN(C)c1ccc(C=C2C(=O)Nc3c(Br)cc(Br)cc32)c2ccccc12 [10724/A02] | 61.7 | 36.7 | 6.3
13 | O=C1Nc2c(Br)cc(Br)cc2C1=Cc1ccc(O)c([N+](=O)[O-])c1 [10724/A03] | 30.7 | 17.2 | 0.1
14 | O=C1Nc2c(Br)cc(Br)cc2C1=Cc1ccc([N+](=O)[O-])c(O)c1 [10724/A04] | 62.6 | 15.4 | 5.0
15 | O=C1Nc2c(Br)cc(Br)cc2C1=Cc1cc2c3c(c1O)CCCN3CCC2 [10724/A05] | 68.4 | 20.3 | 5.0
16 | CC(C)c1cc(C=C2C(=O)Nc3c(Br)cc(Br)cc32)cc(C(C)C)c1O [10724/A06] | 46.8 | 1.4 | 30.7
17 | O=C1Nc2c(Br)cc(Br)cc2C1=Cc1cc2ccccc2o1 [10724/A07] | 58.7 | 18.3 | 16.1
18 | O=C1Nc2c(Br)cc(Br)cc2C1=Cc1cccn1-c1ccc(Cl)cc1 [10724/A09] | 37.5 | 1.6 | 19.6
19 | CCc1ccc(C=C2C(=O)Nc3c(Br)cc(Br)cc32)o1 [10724/A10] | 83.8 | 40.0 | 28.6

Row | Structure (SMILES) | Met Kinase % Inhibition [1] [%] | Biochem EGFR %Inhibition [2] [%] | PDGF Kinase %Inhibition [3] [%]
20 | Cc1csc2sc(C=C3C(=O)Nc4c(Br)cc(Br)cc43)c(C)c12 [10724/A11] | 27.2 | -16.6 | 29.3
21 | O=C1Nc2ccc(I)cc2C1=Cc1ccc(O)c([N+](=O)[O-])c1 [10724/B03] | 51.0 | 14.9 | 14.7
22 | CC(C)c1cc(C=C2C(=O)Nc3ccc(I)cc32)cc(C(C)C)c1O [10724/B06] | 52.1 | 30.9 | 43.2
23 | O=C1Nc2ccc(I)cc2C1=Cc1cc2ccccc2o1 [10724/B07] | 57.9 | 44.0 | 27.2
24 | O=C1Nc2ccc(I)cc2C1=Cc1cccn1-c1ccc(Cl)cc1 [10724/B09] | 43.8 | 8.7 | 25.8
25 | CCc1ccc(C=C2C(=O)Nc3ccc(I)cc32)o1 [10724/B10] | 95.0 | 76.2 | 9.8
26 | Cc1csc2sc(C=C3C(=O)Nc4ccc(I)cc43)c(C)c12 [10724/B11] | 43.0 | -23.2 | 23.0
27 | Cc1c(Br)ccc2c1C(=Cc1ccc(N(C)C)c3ccccc13)C(=O)N2 [10724/C02] | 40.7 | 53.6 | -9.0
28 | Cc1c(Br)ccc2c1C(=Cc1ccc(O)c([N+](=O)[O-])c1)C(=O)N2 [10724/C03] | 68.7 | 16.5 | 4.3
29 | Cc1c(Br)ccc2c1C(=Cc1ccc([N+](=O)[O-])c(O)c1)C(=O)N2 [10724/C04] | 84.3 | 13.2 | 24.4
30 | Cc1c(Br)ccc2c1C(=Cc1cc3c4c(c1O)CCCN4CCC3)C(=O)N2 [10724/C05] | 67.7 | -0.8 | 20.3
31 | Cc1c(Br)ccc2c1C(=Cc1cc(C(C)C)c(O)c(C(C)C)c1)C(=O)N2 [10724/C06] | 15.4 | -2.4 | 34.9
32 | Cc1c(Br)ccc2c1C(=Cc1cc3ccccc3o1)C(=O)N2 [10724/C07] | 14.2 | 9.4 | 22.3
33 | Cc1c(Br)ccc2c1C(=Cc1cccn1-c1ccc(Cl)cc1)C(=O)N2 [10724/C09] | 5.3 | 1.0 | 20.3
34 | CCc1ccc(C=C2C(=O)Nc3ccc(Br)c(C)c32)o1 [10724/C10] | 91.2 | 13.8 | 27.2
35 | Cc1c(Br)ccc2c1C(=Cc1sc3scc(C)c3c1C)C(=O)N2 [10724/C11] | 4.9 | 0.7 | 23.0
36 | CNS(=O)(=O)c1ccc2c(c1)C(=Cc1ccc(N(C)C)c3ccccc13)C(=O)N2 [10724/D02] | 37.5 | 40.5 | -9.6
37 | CNS(=O)(=O)c1ccc2c(c1)C(=Cc1ccc(O)c([N+](=O)[O-])c1)C(=O)N2 [10724/D03] | 18.2 | 2.5 | -15.2
38 | CNS(=O)(=O)c1ccc2c(c1)C(=Cc1ccc([N+](=O)[O-])c(O)c1)C(=O)N2 [10724/D04] | 70.5 | 5.4 | -1.3

Reference: patent publication EP1247803A2, “Indolinone compounds suitable for modulation of protein kinases” (Sugen, Inc., priority 1996, dated 1998)
